Series [1] deals with reduced glutathione (Glut RED, ECG). The series is described as follows: UV spectrophotometry binding to reduced glutathione. The following applies: UV spectrophotometry at 200 nm, pH 7.00 phosphate-buffered saline, ca. 24 °C.
In series [2] the target is oxidized glutathione (Glut OX, ECG-ECG). The series is described as follows: UV spectrophotometry binding to oxidized glutathione. The following applies: UV spectrophotometry; single value, or first (higher-affinity) value of a cell a/b; read-out: Kd (µM) Glut OX ECG-ECG.
Series [3] has as its target T1, beta 2 adrenergic receptor peptide B2AR 183–185 NCY (Homo sapiens, UniProt P07550).
T1 construct: B2AR 183–185 NCY; purchased RS Synthesis (Louisville, KY, USA); host or cells: chemical synthesis
The series is described as follows: biochemical. The following applies: for binding to adrenergic receptor peptide 183–185 (NCY), in words: Figure 4; for Kd: UV spectrophotometry, read-out: Kd (µM) B2AR 183–185 NCY. Format: binding.

The target of series [4] is T2, histamine 1 receptor peptide H1HR 77–87 GAVVMPMNILYL (Homo sapiens, UniProt P35367).
T2 construct: H1HR 77–87 GAVVMPMNILYL; purchased RS Synthesis (Louisville, KY, USA); host or cells: chemical synthesis
Kind of series: biochemical. In kind it is binding. The following applies: UV spectrophotometry; single value, or first (higher-affinity) value of a cell a/b; read-out: Kd (µM) H1HR 77–87 […].

Series [5] addresses T3, histamine 1 receptor peptide H1HR 105–108 SMDY (Homo sapiens, UniProt P35367).
T3 construct: H1HR 105–108 SMDY; purchased RS Synthesis (Louisville, KY, USA); host or cells: chemical synthesis
The series is described as follows: biochemical. The following applies: UV spectrophotometry; single value, or first (higher-affinity) value of a cell a/b; read-out: Kd (µM) H1HR 105–108 SMDY. In kind it is binding.

The target of series [6] is T4, histamine 1 receptor peptide HIHR 177–183 RDKCETD (Homo sapiens, UniProt P35367, E177R).
T4 construct: HIHR 177–183 RDKCETD; purchased RS Synthesis (Louisville, KY, USA); host or cells: chemical synthesis
The series is described as follows: biochemical. The following applies: UV spectrophotometry; read-out: Kd (µM) HIHR 177–183 RDKCETD. In kind it is binding.

Series [7] deals with Opioid Receptor (mu opioid receptor peptides) (Homo sapiens, UniProt P35372). Kind of series: Overall pattern of binding: Opioid Receptor peptides. On the procedure:
(§1) The method used was ultraviolet spectrophotometry, which is a sensitive way to test for the binding of pairs of molecules. Binding data obtained using this method have previously been validated by direct comparison to results of nuclear magnetic resonance, circular dichroism, capillary electrophoresis, and other physicochemical methods (e.g., [51, 87, 88, 89, 90]).
(§2) For each individual test, the concentration of the stock solution was calculated and then diluted to a 10 µM solution.
(§3) Thus, the final concentration of receptor peptide in each well varied from 0.5 mM to 0.05 pM while the other compound was held fixed at 5 µM.
The method of calculating binding constants was to measure the absorbance (minus the absorbance of the buffer) of 100 µL of each compound by itself diluted by 100 µL of buffer at a given wavelength (in this case at 200 nm) at the range of concentrations utilized in the experiments. The average of the resulting values is calculated. (If the experiments are run properly, there is very little variance—a couple of percent. If there was more variance than that, the experiment was re-run.) An “expected” value is calculated following Beer’s law, by adding the absorbances of each pair of compounds (peptide plus small molecule). The actual chemical combinations of these molecules was then run under identical conditions.
The difference between the “expected” and actual values was determined at each concentration of the varied compound. This difference was then plotted against the concentration of the varied compound. […] The binding constant was approximated by using the inflection point of the binding curve (i.e., the point at which the dissociation and association of the two molecules was equal). […] All data were analyzed using Microsoft Excel.
Because the resulting absorbances are the differences between the independently measured absorbances, it is not possible to calculate error bars or to perform statistics on the resulting values.

For series [8], the target named is Adrenergic Receptor (beta 2 adrenergic receptor peptides) (Homo sapiens, UniProt P07550). The series is described as follows: Overall pattern of binding: Adrenergic Receptor peptides. As for the experimental part: as §1, §2, §3
Adrenergic Receptor (beta 2 adrenergic receptor peptides), sequence (P07550 with tags, fused parts or gaps): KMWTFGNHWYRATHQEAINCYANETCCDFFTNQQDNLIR
(§4) The method of calculating binding constants was to measure the absorbance (minus the absorbance of the buffer) of 100 µL of each compound by itself diluted by 100 µL of buffer at a given wavelength (in this case at 200 nm) at the range of concentrations utilized in the experiments. The average of the resulting values is calculated. (If the experiments are run properly, there is very little variance—a couple of percent. If there was more variance than that, the experiment was re-run.) An “expected” value is calculated following Beer’s law, by adding the absorbances of each pair of compounds (peptide plus small molecule). […]
(§5) The difference between the “expected” and actual values was determined at each concentration of the varied compound. […]

Series [9] addresses Dopamine Receptor (dopamine 1 receptor peptides) (Homo sapiens, UniProt P21728). The series is described as follows: Overall pattern of binding: Dopamine Receptor peptides. As for the experimental part: as §1, §2, §3, §4, §5
The target of series [10] is Histamine Receptor (histamine 1 receptor peptides) (Homo sapiens, UniProt P35367). The series is described as follows: biochemical. The following applies: first symbol of the cell. Format: binding.
Histamine Receptor (histamine 1 receptor peptides), sequence (P35367 with tags, fused parts or gaps): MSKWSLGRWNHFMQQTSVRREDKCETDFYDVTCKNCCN
In the next series the test system is receptor peptides tested. The series is described as follows: UV spectrophotometry binding to all peptides tested (summary).
A further series deals with Glutathione. Kind of series: Overall pattern of binding: Glutathione (reduced and oxidized).
The conditions of series [11]: intrathecal delivery; cited from earlier work.
Series [12] addresses dopamine 1 receptor peptide D1DR 96–98 FCN (Homo sapiens, UniProt P21728). Kind of series: biochemical.
The target of series [13] is T5, mu opioid receptor peptide Mu OPR 38–51 (Homo sapiens, UniProt P35372).
T5 construct: Mu OPR 38–51; purchased RS Synthesis (Louisville, KY, USA); host or cells: chemical synthesis
Kind of series: biochemical. Format: binding. The following applies: UV spectrophotometry; single value, or first (higher-affinity) value of a cell a/b; read-out: Kd (µM) Mu OPR 38–51.

Series [14] addresses T6, mu opioid receptor peptide Mu OPR 111–122 (Homo sapiens, UniProt P35372).
T6 construct: Mu OPR 111–122; purchased RS Synthesis (Louisville, KY, USA); host or cells: chemical synthesis
The series is described as follows: biochemical. In kind it is binding. The following applies: UV spectrophotometry; single value, or first (higher-affinity) value of a cell a/b.

The target of series [15] is T7, mu opioid receptor peptide Mu OPR 121–131 (Homo sapiens, UniProt P35372).
T7 construct: Mu OPR 121–131; purchased RS Synthesis (Louisville, KY, USA); host or cells: chemical synthesis
Kind of series: biochemical. In kind it is binding. The following applies: UV spectrophotometry; single value, or first (higher-affinity) value of a cell a/b.

Series [16] addresses T8, mu opioid receptor peptide Mu OPR 132–143 (Homo sapiens, UniProt P35372).
T8 construct: Mu OPR 132–143; purchased RS Synthesis (Louisville, KY, USA); host or cells: chemical synthesis
Kind of series: biochemical. Format: binding. The settings on record: UV spectrophotometry; single value, or first (higher-affinity) value of a cell a/b.

Series [17] has as its target T9, mu opioid receptor peptide Mu OPR 211–226 (Homo sapiens, UniProt P35372).
T9 construct: Mu OPR 211–226; purchased RS Synthesis (Louisville, KY, USA); host or cells: chemical synthesis
The series is described as follows: biochemical. Format: binding. The settings on record: UV spectrophotometry; single value, or first (higher-affinity) value of a cell a/b.

Series [18] has as its target T10, insulin receptor peptide INSR 157–166 (Homo sapiens, UniProt P06213).
T10 construct: INSR 157–166; purchased RS Synthesis (Louisville, KY, USA); host or cells: chemical synthesis
Kind of series: biochemical. Format: binding. The following applies: UV spectrophotometry; read-out: Kd (µM) INSR 157–166.

Series [19] addresses T11, insulin receptor peptide INSR 392–404 (Homo sapiens, UniProt P06213).
T11 construct: purchased RS Synthesis (Louisville, KY, USA); host or cells: chemical synthesis
Kind of series: biochemical. In kind it is binding. The settings on record: UV spectrophotometry.

For series [20], the target named is T12, beta 2 adrenergic receptor peptide B2AR 97–103 KMWTFGN (Homo sapiens, UniProt P07550).
T12 construct: B2AR 97–103 KMWTFGN; purchased RS Synthesis (Louisville, KY, USA); host or cells: chemical synthesis
The series is described as follows: biochemical. In kind it is binding.

Series [21] addresses T13, beta 2 adrenergic receptor peptide B2AR 105–108 WCEF (Homo sapiens, UniProt P07550).
T13 construct: B2AR 105–108 WCEF; purchased RS Synthesis (Louisville, KY, USA); host or cells: chemical synthesis
Kind of series: biochemical. Format: binding.

The subject of series [22] is glutathione S-transferase A-5 and CYP3A2 expression in rat liver. Details: method as in PMID 20487198. The settings on record: exposure to opioid; cited from earlier work.
Where [23] appears, read: UV spectrophotometry, read-out: Kd (µM) B2AR 97–103 KMWTFGN.
[24] abbreviates: UV spectrophotometry, read-out: Kd (µM) B2AR 105–108 WCEF.

Structures are written as SMILES. Structures can show the parent of a compound that is named as a salt. Where two headings read alike, the source gives them in different places.

Opioid Receptor (mu opioid receptor peptides), sequence (P35372 with tags, fused parts or gaps): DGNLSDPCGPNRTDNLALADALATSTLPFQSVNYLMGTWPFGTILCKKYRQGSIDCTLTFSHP
Dopamine Receptor (dopamine 1 receptor peptides), sequence (P21728 with tags, fused parts or gaps): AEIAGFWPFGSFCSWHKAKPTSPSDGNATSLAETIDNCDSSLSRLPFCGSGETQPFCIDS

In the case of `CC(=O)OCC[N+](C)(C)C` [Acetylcholine, acetylcholine], the Kd (as a rule, a measure of binding affinity in units of concentration) in [1] is more than 1000 µM; in [2] it was more than 1000 µM; in [4] it was more than 1000 µM; in series [5], more than 1000 µM; in series [6], more than 1000 µM; in series [7] (first symbol of the cell) it was more than 60 µM. Besides, the Kd in series [8] (first symbol of the cell), in series [9] (first symbol of the cell) and in series [10] was more than 60 µM each time. Further, in series [3], the “binding to adrenergic receptor peptide 183–185 (NCY), in words” value (from here on “binding … (NCY), in words”) was “No binding was observed”. For the same molecule, in the series with receptor peptides tested, the “observable affinity of the peptides tested, in words” value is “none of the peptides tested had observable affinity”.
As for `OC[C@H]1OC(O)[C@H](O)[C@@H](O)[C@@H]1O` (stereo partly shown) [Glucose, glucose], the dissociation constant Kd in [1] was more than 1000 µM; in [2] it was more than 1000 µM; in series [6], more than 1000 µM; in [7], more than 60 µM; in [8], more than 60 µM; in series [9] it was more than 60 µM. Moreover, the dissociation constant Kd in series [10] is more than 60 µM. The “binding … (NCY), in words” value in series [3] was “No binding was observed”. Moreover, the “binding to either reduced or oxidized glutathione, in words” value with Glutathione is reported as “do not bind appreciably”. Also, the “observable affinity of the peptides tested, in words” value with receptor peptides tested is reported as “none of the peptides tested had observable affinity”.
As to `CN1CC[C@]23c4c5ccc(O)c4O[C@H]2[C@@H](O)C=C[C@H]3[C@H]1C5` [Morphine, morphine sulfate], the “transient cerebrospinal fluid concentrations” value in series [11] was “approximately 25 µM”. Further, in series [12], the Kd was determined as 25 µM.
Turning to `N[C@@H](Cc1ccccc1)C(=O)O` [Phenylalanine, phenylalanine], the Kd in series [1] was more than 1000 µM; in series [2], 90 µM; in series [13], 50 µM; in series [14], more than 1000 µM; in series [15] it was more than 1000 µM; in [16] it was 80 µM. In addition, the dissociation constant (Kd) was 200 µM in series [17]; 90 µM in series [18]; more than 1000 µM in series [19]; more than 1000 µM in series [20] (setting [23]); 55 µM in series [21] (setting [24]); 30 µM in series [3]. The Kd was more than 1000 µM in [4], 60 µM in series [5], 50 µM in series [6] and 25 µM in series [12]. In addition, the “binding … (NCY), in words” value in series [3] was “Significant binding”.
For `NCCc1c[nH]c2ccc(O)cc12` [Serotonin, serotonin], the dissociation constant (Kd) is 70 µM in [1]; more than 1000 µM in [2]; 430 µM in series [20]; 45 µM in series [21]; 50 µM in series [4]; 120 µM in [5]. Also, the Kd was 60 µM in series [6] and more than 60 µM in [7] (first symbol of the cell).
With `N[C@@H](Cc1ccc(O)cc1)C(=O)O` [Tyrosine, tyrosine], the Kd in series [1] is 130 µM; in [2] it was 130 µM; in series [13] it was 85 µM; in series [14] it was 700 µM; in series [15], more than 1000 µM; in series [16], 60 µM. Besides, the Kd in series [17] was 160 µM; in series [18], 90 µM; in series [19] it was more than 1000 µM; in [20] (setting [23]), more than 1000 µM; in [21] (setting [24]) it was 50 µM; in series [3] it was 35 µM. For the same molecule, the Kd was more than 1000 µM in [4], 50 µM in series [5], 50 µM in series [6] and 22 µM in series [12]. The “binding … (NCY), in words” value in [3] was “Significant binding”.
On to `COc1ccc2c3c1O[C@H]1C(=O)CC[C@@]4(O)[C@@H](C2)N(C)CC[C@]314` [oxycodone], for which, in [22], the “expression in rat liver of glutathione S-transferase A-5” value is “greater than six-fold increase” and the “expression of the cytochrome enzyme CYP3A2” value is given as “decreased seven-fold”.
